Test results taken from ChEMBL document CHEMBL2331218, “Synthesis, biological evaluation, 3D-QSAR studies of novel aryl-2H-pyrazole derivatives as telomerase inhibitors” (Bioorg Med Chem Lett, 2013).

biological target: Telomerase reverse transcriptase (Homo sapiens, UniProt O14746); test: Inhibition of telomerase in human SGC7901 cells by TRAP assay; format: cell-based, SGC-7901; details: not given
Sequence (O14746 whole entry): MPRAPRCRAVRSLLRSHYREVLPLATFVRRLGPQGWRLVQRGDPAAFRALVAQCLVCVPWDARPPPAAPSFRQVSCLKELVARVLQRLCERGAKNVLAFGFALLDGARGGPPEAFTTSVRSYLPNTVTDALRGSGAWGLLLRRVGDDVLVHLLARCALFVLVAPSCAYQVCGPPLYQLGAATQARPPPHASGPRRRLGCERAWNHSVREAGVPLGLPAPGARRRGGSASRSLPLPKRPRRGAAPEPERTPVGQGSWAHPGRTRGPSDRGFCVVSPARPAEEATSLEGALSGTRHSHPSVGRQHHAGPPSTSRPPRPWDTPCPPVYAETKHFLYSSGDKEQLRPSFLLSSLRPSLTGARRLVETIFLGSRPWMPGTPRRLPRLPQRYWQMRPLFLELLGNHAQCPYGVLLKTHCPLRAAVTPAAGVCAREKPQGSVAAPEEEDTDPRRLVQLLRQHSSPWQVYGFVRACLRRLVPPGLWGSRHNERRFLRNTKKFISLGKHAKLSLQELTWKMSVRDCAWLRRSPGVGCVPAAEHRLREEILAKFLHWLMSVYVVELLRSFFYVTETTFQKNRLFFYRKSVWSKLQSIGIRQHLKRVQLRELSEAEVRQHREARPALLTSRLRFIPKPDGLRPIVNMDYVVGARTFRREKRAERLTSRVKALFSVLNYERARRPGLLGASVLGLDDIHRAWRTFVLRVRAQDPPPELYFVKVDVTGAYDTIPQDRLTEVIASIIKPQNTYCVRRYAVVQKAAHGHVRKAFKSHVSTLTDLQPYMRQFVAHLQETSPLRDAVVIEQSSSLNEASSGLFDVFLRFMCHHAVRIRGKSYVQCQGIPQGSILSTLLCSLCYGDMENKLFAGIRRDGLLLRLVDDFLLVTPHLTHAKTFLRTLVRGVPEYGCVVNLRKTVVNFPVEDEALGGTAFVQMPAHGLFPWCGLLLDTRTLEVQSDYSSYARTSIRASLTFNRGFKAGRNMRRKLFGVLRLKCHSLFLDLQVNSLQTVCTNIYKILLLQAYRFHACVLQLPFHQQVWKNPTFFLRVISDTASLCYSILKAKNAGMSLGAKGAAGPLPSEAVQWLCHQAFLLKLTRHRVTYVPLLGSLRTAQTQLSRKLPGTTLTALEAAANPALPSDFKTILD

First: CC(=O)N1N=C(c2ccc(C)cc2)CC1c1ccc2c(c1)OCO2 (stereo not given)
Second: CC(=O)N1N=C(c2ccc(C)cc2)CC1c1ccc2c(c1)OCCO2 (stereo not given)
The IC50 of the first is 10-fold lower: 1.3 µM for the first, 13.4 µM for the second. The first is the more potent here.

First: CC(=O)N1N=C(c2ccccc2)CC1c1ccc2c(c1)OCO2 (stereo not given)
Second: CC(=O)N1N=C(c2ccccc2)CC1c1ccc2c(c1)OCCO2 (stereo not given)
The IC50 of the first is 5.4-fold lower: 3.4 µM for the first, 18.5 µM for the second. The first is the more potent here.

First: CC(=O)N1N=C(c2ccc(Br)cc2)CC1c1ccc2c(c1)OCO2 (stereo not given)
Second: CC(=O)N1N=C(c2ccc(Br)cc2)CC1c1ccc2c(c1)OCCO2 (stereo not given)
The IC50 of the first is 3.7-fold lower: 6.2 µM for the first, 22.9 µM for the second.

Compared with `CC(=O)N1N=C(c2ccc(F)cc2)CC1c1ccc2c(c1)OCCCO2` (stereo not given), `CC(=O)N1N=C(c2ccc(F)cc2)CC1c1ccc2c(c1)OCCO2` (stereo not given) is 3.3-fold lower in IC50: 83.6 µM for the first, 25.7 µM for the second.

First: CC(=O)N1N=C(c2ccc(Cl)cc2)CC1c1ccc2c(c1)OCCCO2 (stereo not given)
Second: CC(=O)N1N=C(c2ccc(Cl)cc2)CC1c1ccc2c(c1)OCCO2 (stereo not given)
The IC50 of the first is 3.5-fold higher: 82.6 µM for the first, 23.8 µM for the second. The second is the more potent here.

`CC(=O)N1N=C(c2ccc(Br)cc2)CC1c1ccc2c(c1)OCCCO2` (stereo not given) and `CC(=O)N1N=C(c2ccc(C)cc2)CC1c1ccc2c(c1)OCCCO2` (stereo not given) are within 1.5-fold of each other in IC50: 76.4 µM for the first, 54.9 µM for the second.

First: COc1ccc(C2=NN(C(C)=O)C(c3ccc4c(c3)OCCCO4)C2)cc1 (stereo not given)
Second: COc1ccc(C2=NN(C(C)=O)C(c3ccc4c(c3)OCCO4)C2)cc1 (stereo not given)
The IC50 of the first is 4.4-fold higher: 46.7 µM for the first, 10.6 µM for the second.

Going from `CC(=O)N1N=C(c2ccc([N+](=O)[O-])cc2)CC1c1ccc2c(c1)OCCCO2` (stereo not given) to `CC(=O)N1N=C(c2ccc([N+](=O)[O-])cc2)CC1c1ccc2c(c1)OCCO2` (stereo not given), the IC50 falls from 93.2 µM to 37.4 µM (2.5-fold).

`CC(=O)N1N=C(c2ccc(F)cc2)CC1c1ccc2c(c1)OCO2` (stereo not given) and `CC(=O)N1N=C(c2ccc(Cl)cc2)CC1c1ccc2c(c1)OCO2` (stereo not given) are within 1.5-fold of each other in IC50: 7.3 µM for the first, 6.7 µM for the second.

Compared with `COc1ccc(C2=NN(C(C)=O)C(c3ccc4c(c3)OCO4)C2)cc1` (stereo not given), `CC(=O)N1N=C(c2ccc([N+](=O)[O-])cc2)CC1c1ccc2c(c1)OCO2` (stereo not given) is 9.7-fold higher in IC50: 0.9 µM for the first, 8.7 µM for the second.

For `CC(=O)N1N=C(c2ccccc2)CC1c1ccc2c(c1)OCCCO2` (stereo not given), the IC50 was 68.3 µM.

system: B16-F10; test: Anticancer activity against mouse B16F10 cells assessed as cell survival measured after 48 hrs by MTT assay; format: functional, cell-based; details: B16-F10, 48 h

First: CC(=O)N1N=C(c2ccc(C)cc2)CC1c1ccc2c(c1)OCO2 (stereo not given)
Second: CC(=O)N1N=C(c2ccc(C)cc2)CC1c1ccc2c(c1)OCCO2 (stereo not given)
The IC50 of the first is 3-fold lower: 12.8 µM for the first, 37.9 µM for the second.

First: CC(=O)N1N=C(c2ccccc2)CC1c1ccc2c(c1)OCO2 (stereo not given)
Second: CC(=O)N1N=C(c2ccccc2)CC1c1ccc2c(c1)OCCO2 (stereo not given)
The IC50 of the first is 2.8-fold lower: 14 µM for the first, 39.5 µM for the second. The first is the more potent here.

Going from `CC(=O)N1N=C(c2ccc(Br)cc2)CC1c1ccc2c(c1)OCO2` (stereo not given) to `CC(=O)N1N=C(c2ccc(Br)cc2)CC1c1ccc2c(c1)OCCO2` (stereo not given), the IC50 rises from 18.9 µM to 44.1 µM (2.3-fold). The first is the more potent here.

`CC(=O)N1N=C(c2ccc(Br)cc2)CC1c1ccc2c(c1)OCCCO2` (stereo not given) and `CC(=O)N1N=C(c2ccc(C)cc2)CC1c1ccc2c(c1)OCCCO2` (stereo not given) are within 1.5-fold of each other in IC50: 97 µM for the first, 89.7 µM for the second.

First: COc1ccc(C2=NN(C(C)=O)C(c3ccc4c(c3)OCCCO4)C2)cc1 (stereo not given)
Second: COc1ccc(C2=NN(C(C)=O)C(c3ccc4c(c3)OCCO4)C2)cc1 (stereo not given)
The IC50 of the first is 2.7-fold higher: 85.3 µM for the first, 31.7 µM for the second. The second is the more potent here.

Compared with `CC(=O)N1N=C(c2ccc(F)cc2)CC1c1ccc2c(c1)OCO2` (stereo not given), `CC(=O)N1N=C(c2ccc(F)cc2)CC1c1ccc2c(c1)OCCO2` (stereo not given) is 2.4-fold higher in IC50: 22.2 µM for the first, 53.1 µM for the second. The first is the more potent here.

Compared with `CC(=O)N1N=C(c2ccc(Cl)cc2)CC1c1ccc2c(c1)OCO2` (stereo not given), `CC(=O)N1N=C(c2ccc(Cl)cc2)CC1c1ccc2c(c1)OCCO2` (stereo not given) is 2.3-fold higher in IC50: 20.8 µM for the first, 47.3 µM for the second.

First: COc1ccc(C2=NN(C(C)=O)C(c3ccc4c(c3)OCO4)C2)cc1 (stereo not given)
Second: CC(=O)N1N=C(c2ccc([N+](=O)[O-])cc2)CC1c1ccc2c(c1)OCO2 (stereo not given)
The IC50 of the first is 4.6-fold lower: 5.34 µM for the first, 24.7 µM for the second.

Compared with `CC(=O)N1N=C(c2ccc([N+](=O)[O-])cc2)CC1c1ccc2c(c1)OCCO2` (stereo not given), `O=c1[nH]cc(F)c(=O)[nH]1` [FLUOROURACIL] is 2.7-fold lower in IC50: 57.8 µM for the first, 21.4 µM for the second. The second is the more potent here.

system: SGC-7901; test: Anticancer activity against human SGC7901 cells assessed as cell survival measured after 48 hrs by MTT assay; format: functional, cell-based; details: SGC-7901, 48 h

First: CC(=O)N1N=C(c2ccc(C)cc2)CC1c1ccc2c(c1)OCO2 (stereo not given)
Second: CC(=O)N1N=C(c2ccc(C)cc2)CC1c1ccc2c(c1)OCCO2 (stereo not given)
The IC50 of the first is 2.3-fold lower: 21.2 µM for the first, 49.2 µM for the second. The first is the more potent here.

Going from `CC(=O)N1N=C(c2ccccc2)CC1c1ccc2c(c1)OCO2` (stereo not given) to `CC(=O)N1N=C(c2ccccc2)CC1c1ccc2c(c1)OCCO2` (stereo not given), the IC50 rises from 25.7 µM to 50.2 µM (2-fold).

Going from `CC(=O)N1N=C(c2ccc(Br)cc2)CC1c1ccc2c(c1)OCO2` (stereo not given) to `CC(=O)N1N=C(c2ccc(Br)cc2)CC1c1ccc2c(c1)OCCO2` (stereo not given), the IC50 rises from 30.1 µM to 52.3 µM (1.7-fold). The first is the more potent here.

First: COc1ccc(C2=NN(C(C)=O)C(c3ccc4c(c3)OCCCO4)C2)cc1 (stereo not given)
Second: COc1ccc(C2=NN(C(C)=O)C(c3ccc4c(c3)OCCO4)C2)cc1 (stereo not given)
The IC50 of the first is 2.1-fold higher: 94 µM for the first, 45.8 µM for the second.

Compared with `CC(=O)N1N=C(c2ccc(F)cc2)CC1c1ccc2c(c1)OCO2` (stereo not given), `CC(=O)N1N=C(c2ccc(F)cc2)CC1c1ccc2c(c1)OCCO2` (stereo not given) is 1.7-fold higher in IC50: 40.9 µM for the first, 68.4 µM for the second. The first is the more potent here.

First: CC(=O)N1N=C(c2ccc(Cl)cc2)CC1c1ccc2c(c1)OCO2 (stereo not given)
Second: CC(=O)N1N=C(c2ccc(Cl)cc2)CC1c1ccc2c(c1)OCCO2 (stereo not given)
The IC50 of the first is 1.7-fold lower: 35.3 µM for the first, 59.5 µM for the second. The first is the more potent here.

Compared with `COc1ccc(C2=NN(C(C)=O)C(c3ccc4c(c3)OCO4)C2)cc1` (stereo not given), `CC(=O)N1N=C(c2ccc([N+](=O)[O-])cc2)CC1c1ccc2c(c1)OCO2` (stereo not given) is 2.3-fold higher in IC50: 18.1 µM for the first, 41.9 µM for the second.

Going from `CC(=O)N1N=C(c2ccc([N+](=O)[O-])cc2)CC1c1ccc2c(c1)OCCO2` (stereo not given) to `O=c1[nH]cc(F)c(=O)[nH]1` [FLUOROURACIL], the IC50 falls from 70 µM to 46.4 µM (1.5-fold).
